Experiments:
MSCs = assay: Secreted factors (PGE2, IL-6, VEGF, pro-MMP-1) in culture supernatant of MSCs; type: cell-based; details: Homo sapiens, 24 hour culture, read-out: inhibition of PGE2 secretion by hMSCs
Method: Using previously characterized human MSCs, the levels of Interleukin-6 (IL-6), VEGF, lipid mediator prostaglandin E2 (PGE2), and matrix metalloproteinase 1 (pro-MMP-1) were analyzed in culture supernatant of MSCs cultured for 24 hours in the presence or absence of PBMCs (MSC to PBMC ratio 1:10).

DC1 cells = assay: MSC co-culture with LPS-activated DC1 cells, TNF-α secretion; type: cell-based, human; details: MSCs cultured with activated DC1 in presence of PGE2 inhibitor
Description: Peripheral blood mononuclear cells (PBMCs) were obtained from Poietics Technologies, Div of Cambrex Biosciences (Walkersville, Md.). Precursors of dendritic cells (DCs) of monocytic lineage (CD1c^+) were positively selected from PBMCs using a 2-step magnetic separation method according to Dzionek, et al., J. Immunol., Vol. 165, pg. 6037 (2000). Briefly, CD1c expressing B cells were magnetically depleted of CD19^+ cells using magnetic beads, followed by labeling the B-cell depleted fraction with biotin-labeled CD1c (BDCA1^+) and anti-biotin antibodies and separating them from the unlabeled cell fraction utilizing magnetic columns according to the manufacturer's instructions (Miltenyi Biotech, Auburn, Calif.). Precursors of DCs of plasmacytoid lineage were isolated from PBMCs by immuno-magnetic sorting of positively labeled antibody coated cells (BDCA2^+) (Miltenyi Biotech, Auburn, Calif.).
In most experiments, human MSCs and DCs were cultured in equal numbers for various time periods and cell culture supernatant collected and stored at −80° C. until further evaluation. […] The non-adherent cell fraction (purified T cells) was then collected from the cultures, washed twice and re-stimulated with PHA for another 24 hours, following which cell culture supernatants were harvested and analyzed for secreted IFN-γ and IL-4 by ELISA. […]

CD4+ Th cells = assay: Generation of TH1/TH2 cells in presence or absence of MSCs, IFN-γ and IL-4 by ELISA; type: cell-based, human; details: MSCs cultured with TH1 cells in presence of PGE2 inhibitor
Method: Peripheral blood mononuclear cells (PBMCs) were plated at 2×10^6 cells/ml for 45 min. at 37°C. in order to remove monocytes. Non-adherent fraction was incubated in the presence of plate-bound anti-CD3 ([…]) and anti-CD28 (1 μg/ml) antibodies under TH1 (IL-2 (4 ng/ml)+IL-12 (5 ng/ml)+anti-IL-4 (1 μg/ml)) or TH2 (IL-2 (4 ng/ml)+Il-4 (4 ng/ml)+anti-IFN-γ (1 μg/ml)) conditions for 3 days in the presence or absence of MSCs. The cells were washed and then re-stimulated with PHA (2.5 μg/ml) for another 24 or 48 hours, following which levels of IFN-γ and IL-4 were measured in culture supernatants by ELISA (R&D Systems, Minneapolis, Minn.).

Structure (SMILES)	inhibition at 5 µM (MSCs; NS-398 5 μM)	TNF-α secretion by DC1s (DC1 cells)	IFN-γ secretion from TH1 cells (CD4+ Th cells)	inhibition at 4 µM (MSCs; indomethacin 4 μM)
CS(=O)(=O)Nc1ccc([N+](=O)[O-])cc1OC1CCCCC1 [NS-398]	60 to 90%	increased TNF-α secretion	increased	
COc1ccc2c(c1)c(CC(=O)O)c(C)n2C(=O)c1ccc(Cl)cc1 [indomethacin]		increased TNF-α secretion	increased	60 to 90%
